Counter-ions that a name gives are not always drawn. ± gives the standard error.
Key:
[1] = test system: 621-102 (TSC2-deficient); test: relative viability vs DMSO; higher = less cytotoxic; details: serum: 10% FBS, 72 h
[2] = test system: 621-103 (TSC2-rescued); test: as above; details: serum: 10% FBS, 72 h
[3] = test system: 621-102 (TSC2-deficient); test: relative viability vs DMSO (fraction); higher = less cytotoxic; details: serum: 0.1% FBS, 72 h
[4] = test system: UMB1949 (TSC2-deficient); test: as above; details: serum: 0.1% FBS, 72 h;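 also: renal angiomyolipoma cell lines screened in 384-well plates, viability normalized per plate to DMSO-treated cells, each plate carrying 50 nM rapamycin and 1 µM staurosporine controls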

| SMILES | relative viability ([1]; 0.0001 µM) [%] | relative viability ([1]; 0.001 µM) [%] | relative viability ([1]; 0.01 µM) [%] | relative viability ([1]; 0.1 µM) [%] | relative viability ([1]; 1 µM) [%] | relative viability ([1]; 10 µM) [%] | relative viability ([2]; 0.0001 µM) [%] | relative viability ([2]; 0.001 µM) [%] | relative viability ([2]; 0.01 µM) [%] | relative viability ([2]; 0.1 µM) [%] | relative viability ([2]; 1 µM) [%] | relative viability ([2]; 10 µM) [%] | relative viability ([3]; 0.0128 nM) | relative viability ([3]; 0.064 nM) | relative viability ([3]; 0.32 nM) | relative viability ([3]; 1.6 nM) | relative viability ([3]; 8 nM) | relative viability ([3]; 40 nM) | relative viability ([3]; 200 nM) | relative viability ([3]; 1000 nM) | relative viability ([3]; 5000 nM) | relative viability ([4]; 0.0128 nM) | relative viability ([4]; 0.064 nM) | relative viability ([4]; 0.32 nM) | relative viability ([4]; 1.6 nM) | relative viability ([4]; 8 nM) | relative viability ([4]; 40 nM) | relative viability ([4]; 200 nM) | relative viability ([4]; 1000 nM) | relative viability ([4]; 5000 nM) |
| --- | --- | --- | --- | --- | --- | --- | --- | --- | --- | --- | --- | --- | --- | --- | --- | --- | --- | --- | --- | --- | --- | --- | --- | --- | --- | --- | --- | --- | --- | --- |
| Nc1ccn([C@@H]2O[C@H](CO)[C@@H](O)C2(F)F)c(=O)n1 [Gemcitabine Hydrochloride] | 108 ± 11 | 93 ± 1.5 | 52.67 ± 0.069 | 52.6 ± 0.69 | 44.7 ± 3.6 | 32.9 ± 0.75 | 103 ± 1.8 | 95.2 ± 9.7 | 51.9 ± 0.63 | 50 ± 2.1 | 41.866 ± 0.0075 | 28.5 ± 1.5 | 1.07 | 0.96 | 0.953 | 0.0927 | 0.0285 | 0.023 | 0.0148 | 0.008 | 0.00219 | 1.06 | 1.01 | 1.02 | 0.0319 | 0.014 | 0.00861 | 0.007 | 0.00362 | 0.00263 |
| COc1ccc(S(=O)(=O)N(C(C)=O)c2ccccc2/C=C/c2cc[n+]([O-])cc2)cc1 [HMN-214] | 112 ± 4 | 110 ± 1.5 | 96.8 ± 5.4 | 92.7 ± 1.4 | 40.4 ± 1.6 | 37 ± 2.7 | 98.78 ± 0.21 | 99.62 ± 0.55 | 100.9 ± 0.31 | 97.91 ± 0.21 | 45.5 ± 1.1 | 39.5 ± 0.96 | 1.16 | 1.09 | 1.35 | 1.08 | 1.01 | 1.02 | 0.0913 | 0.0251 | 0.03 | 1.14 | 1.08 | 1.09 | 1.17 | 1.09 | 0.985 | 0.0414 | 0.0021 | 0.00207 |
| O=C1Nc2ccccc2/C1=C1/Nc2ccccc2C1=O [Indirubin] | 97.2 ± 1.8 | 92.9 ± 2 | 91.53 ± 0.38 | 87.8 ± 2.7 | 92.2 ± 1.6 | 89.5 ± 2.1 | 86.1 ± 1.6 | 82.2 ± 3.9 | 83.7 ± 2.7 | 81.9 ± 4 | 79.1 ± 3.3 | 64 ± 2.4 | 1.08 | 0.927 | 1.06 | 0.906 | 0.922 | 0.996 | 0.841 | 0.652 | 0.833 | 0.983 | 1.03 | 1.02 | 0.972 | 0.941 | 0.964 | 0.87 | 0.811 | 0.749 |
| O=C(Cc1ccc(-c2ccc(OCCN3CCOCC3)cc2)cn1)NCc1ccccc1 [KX2-391] | 90.4 ± 1.4 | 98.1 ± 14 | 70 ± 2.2 | 47.7 ± 0.7 | 35.2 ± 2.1 | 37.3 ± 0.46 | 101 ± 3.5 | 96.4 ± 5.7 | 58.7 ± 3.5 | 50.8 ± 1 | 33.05 ± 0.28 | 34.1 ± 1.5 | 1.18 | 0.965 | 1.06 | 0.813 | 0.205 | 0.0932 | 0.069 | 0.0401 | 0.0343 | 1.23 | 1.1 | 1.12 | 1.01 | 0.0594 | 0.00501 | 0.00135 | 0.00316 | 0.00418 |
| O=C(/C=C/c1ccc(CN(CCO)CCc2c[nH]c3ccccc23)cc1)NO [LAQ824] | 92.2 ± 3.3 | 87.2 ± 0.88 | 83.3 ± 3.2 | 54.8 ± 0.8 | 31.7 ± 1.1 | 16.2 ± 0.46 | 94.4 ± 1.2 | 94.1 ± 1.4 | 67.9 ± 1.9 | 21.1 ± 0.62 | 2.61 ± 0.065 | 1.459 ± 0.0077 | 1.04 | 0.934 | 0.921 | 0.89 | 0.628 | 0.173 | 0.0545 | 0.00134 | 0.000846 | 1.01 | 0.942 | 0.887 | 0.67 | 0.0147 | 0.00199 | 0.000488 | 0.000621 | 0.000364 |
| CC(C)C[C@H](NC(=O)CNC(=O)c1cc(Cl)ccc1Cl)B(O)O [MLN2238] | 113.5 ± 0.41 | 107.81 ± 0.071 | 109 ± 2.2 | 33.7 ± 7.2 | 4.42 ± 0.32 | 1.79 ± 0.047 | 100.04 ± 0.065 | 102.4 ± 0.21 | 103 ± 0.3 | 6.24 ± 0.3 | 1.63 ± 0.11 | 0.879 ± 0.059 | 1.04 | 1.1 | 0.991 | 1.15 | 0.999 | 0.243 | 0.0069 | 0.000706 | 0.00111 | 0.999 | 1.11 | 1.04 | 1.06 | 0.886 | 0.00829 | 0.00329 | 0.000634 | 0.000752 |
| COc1cc(Nc2ncc3c(n2)-c2ccc(Cl)cc2C(c2c(F)cccc2OC)=NC3)ccc1C(=O)O [MLN8237] | 102 ± 2.6 | 87.64 ± 0.83 | 95.68 ± 0.57 | 87.6 ± 0.9 | 74.6 ± 5.1 | 69.9 ± 2.5 | 103 ± 2.5 | 103.9 ± 0.17 | 98.7 ± 2.3 | 93.8 ± 1 | 91.1 ± 1.4 | 74.62 ± 0.32 | 0.864 | 0.862 | 0.767 | 0.248 | 0.118 | 0.0792 | 0.0576 | 0.0449 | 0.0354 | 0.99 | 0.824 | 0.525 | 0.215 | 0.146 | 0.0466 | 0.0216 | 0.0132 | 0.0159 |

Reference: the supplement of paper PMC8960247
